Test results taken from US20130095038A1, “PARTICLES, AND PHOTOACOUSTIC IMAGING CONTRAST AGENT AND SLN CONTRAST AGENT INCLUDING THE PARTICLES” (CANON KABUSHIKI KAISHA, priority 2011, published 2013).

Tested on: mouse popliteal lymph nodes
Assay: Evaluation of accumulation in SLN
Format: in vivo
Method: Migration to SLN was evaluated using mouse popliteal lymph nodes. A probe was administered to a mouse from the sole of the hindlimb, and accumulation in the popliteal lymph nodes was evaluated as a model of evaluation of accumulation in SLN. Ten microliters of a sample was subcutaneously administered to a mouse from the sole of the hindlimb, and after 24 hours, mouse popliteal lymph nodes were harvested. The harvested mouse popliteal lymph nodes were crushed, and the absorbance of the extract from the crushed lymph nodes was measured. The accumulation rate was calculated based on the following expression:
Accumulation rate=[(absorbance of the extracted mouse popliteal lymph nodes)/(absorbance of the sample in an amount equivalent to the administered amount)]×100.
The accumulation ratios, to SLN, of the photoacoustic imaging contrast agents prepared in Examples B1 to B6 and reagents prepared in Comparative Examples B1 and B2 were calculated according to the above-described evaluation examples for accumulation in SLN. In Table B1, the accumulation ratio means an accumulation rate of each photoacoustic imaging contrast agent or the ICG-albumin complex when the accumulation rate of the ICG aqueous solution used in Comparative Example B1 is assumed as 1.

- Accumulation ratio (accumulation rate relative to ICG aqueous solution = 1, 10 μL subcutaneous, sole of hindlimb, 24 hours, absorbance at 790 or 800 nm): 1
- Accumulation in SLN (in words) (mouse, in vivo): low
SMILES: CC1(C)C(/C=C/C=C/C=C/C=C2/N(CCCCS(=O)(=O)[O-])c3ccc4ccccc4c3C2(C)C)=[N+](CCCCS(=O)(=O)[O-])c2ccc3ccccc3c21.[Na+] [ICG, indocyanine green]
